Measurements from the kinase profiling compilation of Christmann-Franck et al. (2016).

Tests used:
Assay in all cases: radiometric filter-binding kinase assay, Kinase HotSpot
Conditions in all cases: compound 0.5 µM; ATP 10 µM
ADRBK1 (human) = ADRBK1 (human) (UniProt P25098)
AKT2 (human) = AKT2 (human) (UniProt P31751)
AURKC (human) = AURKC (human) (UniProt Q9UQB9)
CAMK2G (human) = CAMK2G (human) (UniProt Q13555)
CAMK4 (human) = CAMK4 (human) (UniProt Q16566)
CDK1 CCNA2 (human) = CDK1 CCNA2 (human) (UniProt P06493+P20248)
CDK1 CCNB1 (human) = CDK1 CCNB1 (human) (UniProt P06493+P14635)
CDK3 CCNE1 (human) = CDK3 CCNE1 (human) (UniProt Q00526+P24864)
Sequence of CDK3 CCNE1 (human) (P24864 whole entry, looked up): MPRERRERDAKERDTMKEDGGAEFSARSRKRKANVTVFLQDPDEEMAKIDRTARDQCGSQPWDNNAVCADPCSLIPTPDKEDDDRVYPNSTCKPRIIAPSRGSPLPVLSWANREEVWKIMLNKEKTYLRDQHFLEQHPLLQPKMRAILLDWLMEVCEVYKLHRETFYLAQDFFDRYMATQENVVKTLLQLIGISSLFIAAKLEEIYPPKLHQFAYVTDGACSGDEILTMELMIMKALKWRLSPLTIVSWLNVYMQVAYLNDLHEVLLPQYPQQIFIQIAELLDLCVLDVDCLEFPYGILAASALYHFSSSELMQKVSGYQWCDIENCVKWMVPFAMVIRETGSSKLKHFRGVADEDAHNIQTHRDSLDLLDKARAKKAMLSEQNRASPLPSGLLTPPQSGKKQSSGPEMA
Sequence of CDK3 CCNE1 (human) (Q00526 whole entry, looked up): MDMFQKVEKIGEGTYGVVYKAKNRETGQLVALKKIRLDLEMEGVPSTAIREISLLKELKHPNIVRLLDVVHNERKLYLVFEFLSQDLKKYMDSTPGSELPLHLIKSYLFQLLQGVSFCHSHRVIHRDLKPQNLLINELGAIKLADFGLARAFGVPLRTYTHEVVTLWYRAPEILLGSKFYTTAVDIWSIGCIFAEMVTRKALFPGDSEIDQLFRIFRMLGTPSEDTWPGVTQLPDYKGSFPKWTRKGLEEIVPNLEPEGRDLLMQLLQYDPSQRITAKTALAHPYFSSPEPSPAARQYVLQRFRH

CDK4 CCND3 (human) = CDK4 CCND3 (human) (UniProt P30281+P11802)
CHEK1 (human) = CHEK1 (human) (UniProt O14757)
CSK (human) = CSK (human) (UniProt P41240)
FGR (human) = FGR (human) (UniProt P09769)
Sequence of FGR (human) (P09769 whole entry, looked up): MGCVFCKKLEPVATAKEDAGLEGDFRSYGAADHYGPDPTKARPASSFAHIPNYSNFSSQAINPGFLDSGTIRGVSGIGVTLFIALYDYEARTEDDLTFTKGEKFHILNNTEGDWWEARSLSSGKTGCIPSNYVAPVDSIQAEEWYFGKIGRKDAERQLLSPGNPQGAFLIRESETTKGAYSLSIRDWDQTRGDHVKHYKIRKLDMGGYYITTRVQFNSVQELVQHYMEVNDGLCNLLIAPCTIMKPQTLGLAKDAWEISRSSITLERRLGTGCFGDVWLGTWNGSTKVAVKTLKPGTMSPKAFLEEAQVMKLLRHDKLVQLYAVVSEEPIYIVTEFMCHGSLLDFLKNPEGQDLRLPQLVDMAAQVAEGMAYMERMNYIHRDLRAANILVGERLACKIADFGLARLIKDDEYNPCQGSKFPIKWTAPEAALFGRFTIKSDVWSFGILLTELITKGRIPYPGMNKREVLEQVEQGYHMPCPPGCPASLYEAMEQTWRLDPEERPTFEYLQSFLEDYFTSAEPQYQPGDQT

FRK (human) = FRK (human) (UniProt P42685)
Sequence of FRK (human) (P42685 whole entry, looked up): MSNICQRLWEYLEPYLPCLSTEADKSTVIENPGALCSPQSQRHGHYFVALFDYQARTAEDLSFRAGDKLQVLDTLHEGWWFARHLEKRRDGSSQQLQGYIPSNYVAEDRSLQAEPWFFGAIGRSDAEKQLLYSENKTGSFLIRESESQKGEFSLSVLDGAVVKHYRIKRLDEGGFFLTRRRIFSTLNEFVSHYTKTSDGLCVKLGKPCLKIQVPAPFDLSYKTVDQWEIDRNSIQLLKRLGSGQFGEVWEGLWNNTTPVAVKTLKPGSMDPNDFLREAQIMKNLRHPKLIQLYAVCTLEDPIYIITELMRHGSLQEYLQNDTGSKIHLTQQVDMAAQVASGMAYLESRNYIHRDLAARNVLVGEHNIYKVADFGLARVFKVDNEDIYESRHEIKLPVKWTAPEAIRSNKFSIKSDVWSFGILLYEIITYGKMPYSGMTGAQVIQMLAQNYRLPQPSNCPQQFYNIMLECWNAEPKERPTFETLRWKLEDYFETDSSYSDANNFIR

GSK3A (human) = GSK3A (human) (UniProt P49840)
Sequence of GSK3A (human) (P49840 whole entry, looked up): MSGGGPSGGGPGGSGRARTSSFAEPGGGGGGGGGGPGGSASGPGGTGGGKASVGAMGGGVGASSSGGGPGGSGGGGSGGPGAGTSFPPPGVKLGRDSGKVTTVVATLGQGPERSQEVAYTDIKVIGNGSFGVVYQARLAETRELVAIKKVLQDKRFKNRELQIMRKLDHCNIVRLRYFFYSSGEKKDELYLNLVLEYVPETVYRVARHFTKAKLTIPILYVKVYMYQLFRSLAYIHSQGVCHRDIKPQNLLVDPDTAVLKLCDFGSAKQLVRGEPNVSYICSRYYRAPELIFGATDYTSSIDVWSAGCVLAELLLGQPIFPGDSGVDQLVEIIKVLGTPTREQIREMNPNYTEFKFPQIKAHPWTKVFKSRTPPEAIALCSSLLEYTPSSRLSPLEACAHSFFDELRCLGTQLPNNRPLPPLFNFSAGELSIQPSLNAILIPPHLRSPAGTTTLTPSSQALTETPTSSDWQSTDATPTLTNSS

HCK (human) = HCK (human) (UniProt P08631)
HIPK3 (human) = HIPK3 (human) (UniProt Q9H422)
INSRR (human) = INSRR (human) (UniProt P14616)
IRAK4 (human) = IRAK4 (human) (UniProt Q9NWZ3)
[1] = biological target: JAK1 JH1 catalytic (human) (UniProt P23458)
MAP2K2 (human) = MAP2K2 (human) (UniProt P36507)
MAP3K11 (human) = MAP3K11 (human) (UniProt Q16584)
MAP3K2 (human) = MAP3K2 (human) (UniProt Q9Y2U5)
MAP3K3 (human) = MAP3K3 (human) (UniProt Q99759)
MAP3K9 (human) = MAP3K9 (human) (UniProt P80192)
MAP4K2 (human) = MAP4K2 (human) (UniProt Q12851)
MAPK12 (human) = MAPK12 (human) (UniProt P53778)
NEK1 (human) = NEK1 (human) (UniProt Q96PY6)
Sequence of NEK1 (human) (Q96PY6 whole entry, looked up): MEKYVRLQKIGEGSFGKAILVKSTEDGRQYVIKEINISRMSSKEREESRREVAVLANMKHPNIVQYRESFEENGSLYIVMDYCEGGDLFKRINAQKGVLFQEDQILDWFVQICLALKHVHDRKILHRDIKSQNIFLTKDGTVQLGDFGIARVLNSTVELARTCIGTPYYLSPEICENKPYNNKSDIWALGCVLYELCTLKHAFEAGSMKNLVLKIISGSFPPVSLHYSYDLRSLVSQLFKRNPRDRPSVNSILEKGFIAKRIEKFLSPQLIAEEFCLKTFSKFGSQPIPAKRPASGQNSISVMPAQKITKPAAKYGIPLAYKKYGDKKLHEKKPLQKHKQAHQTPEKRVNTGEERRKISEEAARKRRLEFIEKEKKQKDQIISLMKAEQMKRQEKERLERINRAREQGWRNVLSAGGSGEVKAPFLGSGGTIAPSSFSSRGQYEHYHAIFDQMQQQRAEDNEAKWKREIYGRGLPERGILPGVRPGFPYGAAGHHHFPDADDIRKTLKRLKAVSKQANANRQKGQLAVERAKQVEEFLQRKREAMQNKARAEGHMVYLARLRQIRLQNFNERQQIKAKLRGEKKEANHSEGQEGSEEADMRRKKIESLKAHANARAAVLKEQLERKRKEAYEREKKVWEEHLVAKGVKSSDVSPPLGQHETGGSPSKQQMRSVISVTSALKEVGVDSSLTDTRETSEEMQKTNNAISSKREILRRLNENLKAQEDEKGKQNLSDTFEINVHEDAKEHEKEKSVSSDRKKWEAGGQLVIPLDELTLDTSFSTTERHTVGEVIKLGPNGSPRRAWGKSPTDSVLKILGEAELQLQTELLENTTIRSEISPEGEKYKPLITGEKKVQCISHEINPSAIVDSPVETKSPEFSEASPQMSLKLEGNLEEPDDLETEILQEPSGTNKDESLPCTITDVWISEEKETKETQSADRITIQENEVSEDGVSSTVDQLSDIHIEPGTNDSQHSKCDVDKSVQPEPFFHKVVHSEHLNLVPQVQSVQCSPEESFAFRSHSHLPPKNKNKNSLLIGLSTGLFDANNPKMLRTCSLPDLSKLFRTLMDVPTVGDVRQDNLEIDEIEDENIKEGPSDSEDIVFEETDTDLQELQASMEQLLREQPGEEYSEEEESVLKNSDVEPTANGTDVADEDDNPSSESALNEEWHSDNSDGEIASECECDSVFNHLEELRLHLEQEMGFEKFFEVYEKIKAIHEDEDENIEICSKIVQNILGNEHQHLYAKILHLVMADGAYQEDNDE

NEK9 (human) = NEK9 (human) (UniProt Q8TD19)
NTRK3 (human) = NTRK3 (human) (UniProt Q16288)
PAK7 (human) = PAK7 (human) (UniProt Q9P286)
PDGFRA (human) = PDGFRA (human) (UniProt P16234)
PIM2 (human) = PIM2 (human) (UniProt Q9P1W9)
Sequence of PIM2 (human) (Q9P1W9 whole entry, looked up): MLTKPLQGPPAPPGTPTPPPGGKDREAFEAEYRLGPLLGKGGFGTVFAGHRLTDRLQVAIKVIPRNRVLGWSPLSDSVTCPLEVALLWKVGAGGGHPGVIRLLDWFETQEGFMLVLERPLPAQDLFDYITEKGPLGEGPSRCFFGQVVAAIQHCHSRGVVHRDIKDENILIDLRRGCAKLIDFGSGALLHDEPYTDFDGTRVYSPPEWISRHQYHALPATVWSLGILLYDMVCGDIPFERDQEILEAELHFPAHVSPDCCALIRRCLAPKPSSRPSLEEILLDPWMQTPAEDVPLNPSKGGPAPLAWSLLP

PIM3 (human) = PIM3 (human) (UniProt Q86V86)
PRKX (human) = PRKX (human) (UniProt P51817)
Sequence of PRKX (human) (P51817 whole entry, looked up): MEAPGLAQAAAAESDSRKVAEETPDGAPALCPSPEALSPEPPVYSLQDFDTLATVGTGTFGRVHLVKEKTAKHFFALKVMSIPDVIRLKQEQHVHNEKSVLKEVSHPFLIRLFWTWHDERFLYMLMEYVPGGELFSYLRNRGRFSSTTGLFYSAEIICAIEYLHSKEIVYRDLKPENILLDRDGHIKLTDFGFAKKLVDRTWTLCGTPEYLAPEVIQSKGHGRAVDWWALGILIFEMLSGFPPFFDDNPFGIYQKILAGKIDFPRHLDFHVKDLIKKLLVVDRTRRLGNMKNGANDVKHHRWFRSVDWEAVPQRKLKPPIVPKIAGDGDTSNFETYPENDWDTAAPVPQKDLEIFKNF

SLK (human) = SLK (human) (UniProt Q9H2G2)
SRC (human) = SRC (human) (UniProt P12931)
STK24 (human) = STK24 (human) (UniProt Q9Y6E0)
STK33 (human) = STK33 (human) (UniProt Q9BYT3)
Sequence of STK33 (human) (Q9BYT3 whole entry, looked up): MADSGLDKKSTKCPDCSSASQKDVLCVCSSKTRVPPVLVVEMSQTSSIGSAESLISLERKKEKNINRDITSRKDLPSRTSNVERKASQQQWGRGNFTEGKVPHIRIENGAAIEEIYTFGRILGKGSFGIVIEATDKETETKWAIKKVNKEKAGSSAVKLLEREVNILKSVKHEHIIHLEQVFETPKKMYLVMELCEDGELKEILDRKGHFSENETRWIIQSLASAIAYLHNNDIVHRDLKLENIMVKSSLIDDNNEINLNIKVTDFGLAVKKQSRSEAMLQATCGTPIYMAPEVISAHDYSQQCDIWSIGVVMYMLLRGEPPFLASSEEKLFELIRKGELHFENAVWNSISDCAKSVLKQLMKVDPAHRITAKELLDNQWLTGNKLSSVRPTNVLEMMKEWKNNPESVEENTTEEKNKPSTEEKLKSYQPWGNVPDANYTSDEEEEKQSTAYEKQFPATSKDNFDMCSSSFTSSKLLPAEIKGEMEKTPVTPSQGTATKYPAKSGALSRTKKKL

TEK (human) = TEK (human) (UniProt Q02763)
TGFBR1 (human) = TGFBR1 (human) (UniProt P36897)
TNK2 (human) = TNK2 (human) (UniProt Q07912)
WNK2 (human) = WNK2 (human) (UniProt Q9Y3S1)

Sequence of AURKC (human) (Q9UQB9 whole entry, looked up): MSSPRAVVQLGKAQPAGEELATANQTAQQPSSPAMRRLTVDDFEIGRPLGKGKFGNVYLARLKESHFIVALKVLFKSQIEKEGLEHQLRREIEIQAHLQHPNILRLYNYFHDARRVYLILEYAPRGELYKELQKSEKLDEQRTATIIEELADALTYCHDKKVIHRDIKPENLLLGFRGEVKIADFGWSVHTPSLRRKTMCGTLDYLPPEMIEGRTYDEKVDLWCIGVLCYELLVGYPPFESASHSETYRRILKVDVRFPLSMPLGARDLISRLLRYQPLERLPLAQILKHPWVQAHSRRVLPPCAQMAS

Nc1ccc2ncnc(NCCc3ccc(Oc4ccccc4)cc3)c2c1
residual activity (ADRBK1 (human)): 91.5%
residual activity (AKT2 (human)): 101%
residual activity (AURKC (human)): 96%
residual activity (CAMK2G (human)): 118%
residual activity (CAMK4 (human)): 98.9%
residual activity (CDK1 CCNA2 (human)): 98.9%
residual activity (CDK1 CCNB1 (human)): 96.3%
residual activity (CDK3 CCNE1 (human)): 94.8%
residual activity (CDK4 CCND3 (human)): 109%
residual activity (CHEK1 (human)): 101%
residual activity (CSK (human)): 96.7%
residual activity (FGR (human)): 101%
residual activity (FRK (human)): 100%
residual activity (GSK3A (human)): 110%
residual activity (HCK (human)): 96.4%
residual activity (HIPK3 (human)): 98.6%
residual activity (INSRR (human)): 98.7%
residual activity (IRAK4 (human)): 92.4%
residual activity [1]: 94.6%
residual activity (MAP2K2 (human)): 94.9%
residual activity (MAP3K11 (human)): 103%
residual activity (MAP3K2 (human)): 98.4%
residual activity (MAP3K3 (human)): 106%
residual activity (MAP3K9 (human)): 103%
residual activity (MAP4K2 (human)): 100%
residual activity (MAPK12 (human)): 93.6%
residual activity (NEK1 (human)): 102%
residual activity (NEK9 (human)): 95.8%
residual activity (NTRK3 (human)): 98.4%
residual activity (PAK7 (human)): 106%
residual activity (PDGFRA (human)): 98.5%
residual activity (PIM2 (human)): 119%
residual activity (PIM3 (human)): 104%
residual activity (PRKX (human)): 104%
residual activity (SLK (human)): 102%
residual activity (SRC (human)): 102%
residual activity (STK24 (human)): 107%
residual activity (STK33 (human)): 101%
residual activity (TEK (human)): 99%
residual activity (TGFBR1 (human)): 97.7%
residual activity (TNK2 (human)): 102%
residual activity (WNK2 (human)): 96.7%

CCCC(=O)Oc1ccc2[nH]c(C(=O)c3cc4ccccc4[nH]3)cc2c1
residual activity (ADRBK1 (human)): 101%
residual activity (AKT2 (human)): 105%
residual activity (AURKC (human)): 94.9%
residual activity (CAMK2G (human)): 99.4%
residual activity (CAMK4 (human)): 111%
residual activity (CDK1 CCNA2 (human)): 87.3%
residual activity (CDK1 CCNB1 (human)): 106%
residual activity (CDK3 CCNE1 (human)): 88.2%
residual activity (CDK4 CCND3 (human)): 103%
residual activity (CHEK1 (human)): 89.7%
residual activity (CSK (human)): 83.5%
residual activity (FGR (human)): 88.4%
residual activity (FRK (human)): 98.2%
residual activity (GSK3A (human)): 94.1%
residual activity (HCK (human)): 95.1%
residual activity (HIPK3 (human)): 94.7%
residual activity (INSRR (human)): 97.9%
residual activity (IRAK4 (human)): 82.7%
residual activity [1]: 104%
residual activity (MAP2K2 (human)): 98.7%
residual activity (MAP3K11 (human)): 98.7%
residual activity (MAP3K2 (human)): 81.7%
residual activity (MAP3K3 (human)): 91.9%
residual activity (MAP3K9 (human)): 97.7%
residual activity (MAP4K2 (human)): 95.3%
residual activity (MAPK12 (human)): 93.7%
residual activity (NEK1 (human)): 94.3%
residual activity (NEK9 (human)): 110%
residual activity (NTRK3 (human)): 95.9%
residual activity (PAK7 (human)): 91%
residual activity (PDGFRA (human)): 96.6%
residual activity (PIM2 (human)): 101%
residual activity (PIM3 (human)): 84.5%
residual activity (PRKX (human)): 96.1%
residual activity (SLK (human)): 98.9%
residual activity (SRC (human)): 97%
residual activity (STK24 (human)): 95.5%
residual activity (STK33 (human)): 92.9%
residual activity (TEK (human)): 100%
residual activity (TGFBR1 (human)): 101%
residual activity (TNK2 (human)): 77.7%
residual activity (WNK2 (human)): 113%

COc1cc2ncnc(Nc3cccc(Cl)c3)c2cc1OC
residual activity (ADRBK1 (human)): 96.6%
residual activity (AKT2 (human)): 84.1%
residual activity (AURKC (human)): 85.8%
residual activity (CAMK2G (human)): 97.3%
residual activity (CAMK4 (human)): 94.4%
residual activity (CDK1 CCNA2 (human)): 94.9%
residual activity (CDK1 CCNB1 (human)): 90.3%
residual activity (CDK3 CCNE1 (human)): 95.2%
residual activity (CDK4 CCND3 (human)): 103%
residual activity (CHEK1 (human)): 93.7%
residual activity (CSK (human)): 91.1%
residual activity (FGR (human)): 75.3%
residual activity (FRK (human)): 81.1%
residual activity (GSK3A (human)): 104%
residual activity (HCK (human)): 61.8%
residual activity (HIPK3 (human)): 98.9%
residual activity (INSRR (human)): 99%
residual activity (IRAK4 (human)): 77.7%
residual activity [1]: 90.4%
residual activity (MAP2K2 (human)): 102%
residual activity (MAP3K11 (human)): 84.1%
residual activity (MAP3K2 (human)): 98.2%
residual activity (MAP3K3 (human)): 88.3%
residual activity (MAP3K9 (human)): 82.8%
residual activity (MAP4K2 (human)): 98.1%
residual activity (MAPK12 (human)): 98.5%
residual activity (NEK1 (human)): 93.1%
residual activity (NEK9 (human)): 82.6%
residual activity (NTRK3 (human)): 86.3%
residual activity (PAK7 (human)): 83%
residual activity (PDGFRA (human)): 93.3%
residual activity (PIM2 (human)): 104%
residual activity (PIM3 (human)): 99.4%
residual activity (PRKX (human)): 92.5%
residual activity (SLK (human)): 64.6%
residual activity (SRC (human)): 71.9%
residual activity (STK24 (human)): 96.8%
residual activity (STK33 (human)): 88.3%
residual activity (TEK (human)): 88.6%
residual activity (TGFBR1 (human)): 100%
residual activity (TNK2 (human)): 28.6%
residual activity (WNK2 (human)): 98.6%
